Assay [1] relates to adjuvant arthritis. Put plainly: Adjuvant arthritis in rats, arthritis score (Example 2).
For assay [2], the system named is adjuvant arthritis. Put plainly: Adjuvant arthritis in rats, arthritis score (Example 1 and Comparative Examples 1-3). The settings on record: test material 10% in 0.5% CMC, 1 ml/100 g oral once a day, average ± standard error. Type of assay: in vivo, Female Lewis rats.

Regarding `CC(C)Cc1ccc(C(C)C(=O)O)cc1` (stereo not drawn) [Ibuprofen], the Arthritis score in assay [1] (Ibuprofen 0.3% in 0.5% CMC, 1 ml/100 g oral once a day, day 0) worked out at 0; in assay [1] (Ibuprofen 0.3%, oral once a day, day 5) it was 0; in assay [1] (Ibuprofen 0.3%, oral once a day, day 9), 0.1 ± 0.1; in assay [1] (Ibuprofen 0.3%, oral once a day, day 14) it was 6.5 ± 0.6; in assay [1] (Ibuprofen 0.3%, oral once a day, day 19), 9.0 ± 0.5; in assay [1] (Ibuprofen 0.3%, oral once a day, day 21), 9.5 ± 0.3.

On to sodium caseinate [Comp. Ex. 2], for which the Arthritis score is on record as 0.00 in assay [2] (day 0 to 21, day 0, max 12 points); 0.00 in assay [2] (day 5); 1.25 ± 0.37 in assay [2] (day 9); 8.25 ± 0.62 in assay [2] (day 14); 10.50 ± 0.33 in assay [2] (day 19); 10.38 ± 0.32 in assay [2] (day 22).
